Assay results: patent US6737383B1, “Herbicidal oxadiazolidines” (priority 1999, dated 2004)

Key:
rape = experiment: Test B pre/postemergence rape; type: in vivo, Brassica napus
Summary of the method: (§1)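 Test chemicals in a non-phytotoxic solvent mixture with surfactant were sprayed preemergence onto planted seeds and postemergence onto plants 2 to 18 cm tall (1- to 4-leaf stage). After twelve to sixteen days in a greenhouse, injury was visually rated against untreated controls from 0 (no effect) to 10 (complete control).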

wheat = experiment: Test B pre/postemergence wheat; type: in vivo, Triticum aestivum
Summary of the method: as §1

blackgrass = experiment: Test B pre/postemergence blackgrass; type: in vivo, Alopecurus myosuroides
Summary of the method: as §1

pigweed = experiment: Test B pre/postemergence pigweed; type: in vivo, Amaranthus retroflexus
Summary of the method: as §1

surinam grass = experiment: Test B pre/postemergence surinam grass; type: in vivo, Brachiaria decumbens; settings: Postemergence
Summary of the method: as §1

morningglory = experiment: Test B pre/postemergence morningglory; type: in vivo, Ipomoea hederacea
Summary of the method: as §1

giant foxtail = experiment: Test B pre/postemergence giant foxtail; type: in vivo, Setaria faberii
Summary of the method: as §1

sugar beet = experiment: Test B pre/postemergence sugar beet; type: in vivo, Beta vulgaris
Summary of the method: as §1

cocklebur = experiment: Test B pre/postemergence cocklebur; type: in vivo, Xanthium strumarium
Summary of the method: as §1

corn = experiment: Test B pre/postemergence corn; type: in vivo, Zea mays
Summary of the method: as §1

bedstraw = experiment: Test B pre/postemergence bedstraw; type: in vivo, Galium aparine
Summary of the method: as §1

crabgrass = experiment: Test B pre/postemergence crabgrass; type: in vivo, Digitaria sanguinalis
Summary of the method: as §1

wild oat = experiment: Test B pre/postemergence wild oat; type: in vivo, Avena fatua
Summary of the method: as §1

soybean = experiment: Test B pre/postemergence soybean; type: in vivo, Glycine max
Summary of the method: as §1

velvetleaf = experiment: Test B pre/postemergence velvetleaf; type: in vivo, Abutilon theophrasti
Summary of the method: as §1

purple nutsedge = experiment: Test B pre/postemergence purple nutsedge; type: in vivo, Cyperus rotundus
Summary of the method: as §1

[1] = Postemergence, Rate 31 g/ha, visual rating, scale 0 to 10 (0 no effect, 10 complete control)
[2] = Postemergence, Rate 62 g/ha, scale 0 to 10, 0 is no effect, 10 is complete control
[3] = Postemergence, Rate 125 g/ha, scale of 0 to 10 where 0 is no effect and 10 is complete control
[4] = Rate 62 g/ha, Preemergence, scale 0 to 10
[5] = Rate 125 g/ha, Preemergence, scale 0 to 10 (0 no effect, 10 complete control)
[6] = Rate 250 g/ha, Postemergence, scale 0 to 10, 0 is no effect, 10 is complete control
[7] = Preemergence, Rate 31 g/ha, visual rating, scale 0 to 10 (0 no effect, 10 complete control)
[8] = Preemergence, Rate 250 g/ha, scale 0 (no effect) to 10 (complete control)

`CCOP(=O)(OCC)C(C)n1c(=O)on(C(=O)N(c2ccc(F)cc2F)C(C)C)c1=O` (stereo not drawn) [Compound 776] was tested, and the “Rape plant response rating” value (rape; [1]) was 0, the “Plant response rating, Rape” value (rape; [2]) was 2 and the “Rape plant response rating” value (rape; [3]) was 2. The “Rape plant response rating” value (rape; [4]) was 0, the “Rape plant response rating” value (rape; [5]) was 0 and the “Rape plant response rating” value (rape; [6]) was 2. The “Wheat plant response rating” value (wheat; [1]) was 0, the “Plant response rating, Wheat” value (wheat; [2]) was 0 and the “Wheat plant response rating” value (wheat; [4]) was 0. The “Wheat plant response rating” value (wheat; [5]) was 2, the “Wheat plant response rating” value (wheat; [6]) was 0 and the “Blackgrass plant response rating” value (blackgrass; [1]) was 2. For the same molecule, the “Plant response rating, Blackgrass” value (blackgrass; [2]) was 2, the “Blackgrass plant response rating” value (blackgrass; [3]) was 2 and the “Blackgrass plant response rating” value (blackgrass; [7]) was 0. For the same molecule, the “Blackgrass plant response rating” value (blackgrass; [8]) was 2, the “Blackgrass plant response rating” value (blackgrass; [4]) was 0 and the “Blackgrass plant response rating” value (blackgrass; [5]) was 0. The “Blackgrass plant response rating” value (blackgrass; [6]) was 2, the “Redroot pigweed plant response rating” value (pigweed; [1]) was 0 and the “Plant response rating, Redroot pigweed” value (pigweed; [2]) was 2. The “Redroot pigweed plant response rating” value (pigweed; [3]) was 2, the “Redroot pigweed plant response rating” value (pigweed; [4]) was 0 and the “Redroot pigweed plant response rating” value (pigweed; [5]) was 0. The “Redroot pigweed plant response rating” value (pigweed; [6]) was 2, the “B. signalgrass plant response rating” value (surinam grass; Rate 31 g/ha, visual rating, scale 0 to 10 (0 no effect, 10 complete control)) was 0 and the “Plant response rating, B. signalgrass” value (surinam grass; Rate 62 g/ha, scale 0 to 10, 0 is no effect, 10 is complete control) was 0. The “B. signalgrass plant response rating” value (surinam grass; Rate 125 g/ha, scale of 0 to 10 where 0 is no effect and 10 is complete control) was 0, the “B. signalgrass plant response rating” value (surinam grass; Rate 250 g/ha, scale 0 to 10, 0 is no effect, 10 is complete control) was 0 and the “Morningglory plant response rating” value (morningglory; [1]) was 4. For the same molecule, the “Plant response rating, Morningglory” value (morningglory; [2]) was 7, the “Morningglory plant response rating” value (morningglory; [3]) was 7 and the “Morningglory plant response rating” value (morningglory; [4]) was 0. The “Morningglory plant response rating” value (morningglory; [5]) was 2, the “Giant foxtail plant response rating” value (giant foxtail; [1]) was 2 and the “Plant response rating, Giant foxtail” value (giant foxtail; [2]) was 2. The “Giant foxtail plant response rating” value (giant foxtail; [3]) was 2, the “Giant foxtail plant response rating” value (giant foxtail; [7]) was 5 and the “Giant foxtail plant response rating” value (giant foxtail; [8]) was 9. The “Giant foxtail plant response rating” value (giant foxtail; [4]) was 9, the “Giant foxtail plant response rating” value (giant foxtail; [5]) was 9 and the “Giant foxtail plant response rating” value (giant foxtail; [6]) was 2. The “Sugarbeets plant response rating” value (sugar beet; [1]) was 0, the “Plant response rating, Sugarbeets” value (sugar beet; [2]) was 0 and the “Sugarbeets plant response rating” value (sugar beet; [4]) was 0. The “Sugarbeets plant response rating” value (sugar beet; [5]) was 0, the “Sugarbeets plant response rating” value (sugar beet; [6]) was 3 and the “Cocklebur plant response rating” value (cocklebur; [1]) was 0. The “Plant response rating, Cocklebur” value (cocklebur; [2]) was 0, the “Cocklebur plant response rating” value (cocklebur; [3]) was 0 and the “Cocklebur plant response rating” value (cocklebur; [7]) was 0. For the same molecule, the “Cocklebur plant response rating” value (cocklebur; [6]) was 0, the “Corn plant response rating” value (corn; [1]) was 0 and the “Plant response rating, Corn” value (corn; [2]) was 0. The “Corn plant response rating” value (corn; [3]) was 0, the “Corn plant response rating” value (corn; [7]) was 0 and the “Corn plant response rating” value (corn; [8]) was 1. For the same molecule, the “Corn plant response rating” value (corn; [4]) was 0, the “Corn plant response rating” value (corn; [5]) was 0 and the “Corn plant response rating” value (corn; [6]) was 0. The “Bedstraw plant response rating” value (bedstraw; [1]) was 0, the “Plant response rating, Bedstraw” value (bedstraw; [2]) was 0 and the “Bedstraw plant response rating” value (bedstraw; [3]) was 3. For the same molecule, the “Bedstraw plant response rating” value (bedstraw; [7]) was 0, the “Bedstraw plant response rating” value (bedstraw; [8]) was 0 and the “Bedstraw plant response rating” value (bedstraw; [4]) was 0. The “Bedstraw plant response rating” value (bedstraw; [5]) was 0, the “Bedstraw plant response rating” value (bedstraw; [6]) was 3 and the “Crabgrass plant response rating” value (crabgrass; [1]) was 2. For the same molecule, the “Plant response rating, Crabgrass” value (crabgrass; [2]) was 2, the “Crabgrass plant response rating” value (crabgrass; [3]) was 2 and the “Crabgrass plant response rating” value (crabgrass; [7]) was 5. The “Crabgrass plant response rating” value (crabgrass; [8]) was 9, the “Crabgrass plant response rating” value (crabgrass; [4]) was 5 and the “Crabgrass plant response rating” value (crabgrass; [5]) was 8. The “Crabgrass plant response rating” value (crabgrass; [6]) was 2, the “Wild oats plant response rating” value (wild oat; [1]) was 0 and the “Plant response rating, Wild oats” value (wild oat; [2]) was 0. The “Wild oats plant response rating” value (wild oat; [4]) was 2, the “Wild oats plant response rating” value (wild oat; [5]) was 2 and the “Wild oats plant response rating” value (wild oat; [6]) was 0. For the same molecule, the “Soybean plant response rating” value (soybean; [1]) was 1, the “Plant response rating, Soybean” value (soybean; [2]) was 2 and the “Soybean plant response rating” value (soybean; [4]) was 0. The “Soybean plant response rating” value (soybean; [5]) was 0, the “Soybean plant response rating” value (soybean; [6]) was 2 and the “Velvetleaf plant response rating” value (velvetleaf; [1]) was 2. For the same molecule, the “Plant response rating, Velvetleaf” value (velvetleaf; [2]) was 3, the “Velvetleaf plant response rating” value (velvetleaf; [4]) was 0 and the “Velvetleaf plant response rating” value (velvetleaf; [5]) was 0. The “Velvetleaf plant response rating” value (velvetleaf; [6]) was 3, the “Nutsedge plant response rating” value (purple nutsedge; [1]) was 0 and the “Plant response rating, Nutsedge” value (purple nutsedge; [2]) was 0. The “Nutsedge plant response rating” value (purple nutsedge; [3]) was 0, the “Nutsedge plant response rating” value (purple nutsedge; [4]) was 0 and the “Nutsedge plant response rating” value (purple nutsedge; [6]) was 0.
